The text below walks through data of ChEMBL document CHEMBL4007498, “Design and synthesis of hybrids of diarylpyrimidines and diketo acids as HIV-1 inhibitors” (Bioorg Med Chem Lett, 2017).

In data set [1] the test system is Human immunodeficiency virus 1. The data set is described as follows: Antiviral activity against wild type HIV1 3B infected in human MT4 cells assessed as inhibition of viral replication after 5 days by MTT assay. The following applies: Human immunodeficiency virus 1, 3B, MT4, 120 h. It is filed as functional, cell-based. In general terms: Tetrazolium assays rely on reduction of a dye to a coloured formazan, in cell work by metabolically active cells.

In data set [2] the test system is Human immunodeficiency virus 1. The data set is described as follows: Antiviral activity against HIV1 harboring reverse transcriptase K103N mutant infected in human MT4 cells assessed as inhibition of viral replication after 5 days by MTT assay. It is filed as functional, cell-based. The following applies: Human immunodeficiency virus 1, MT4, 120 h.
For data set [3], the system named is Human immunodeficiency virus 1. The data set is described as follows: Antiviral activity against HIV1 RES056 harboring reverse transcriptase K103N/Y181C double mutant infected in human MT4 cells assessed as inhibition of viral replication after 5 days by MTT assay. It is filed as functional, cell-based. The conditions noted are these: Human immunodeficiency virus 1, RES056, MT4, 120 h.

A short description of data set [4]: Cytotoxicity against human MT4 cells assessed as decrease in cell viability after 5 days by MTT assay. The format is cell-based.
Data set [5] can be described thus: Selectivity index, ratio of CC50 for human MT4 cells to EC50 for wild type HIV1 3B. It is filed as toxicity. The conditions noted are these: read-out: Ratio CC50/EC50.
Data set [6] deals with Human immunodeficiency virus 1. The data set is described as follows: Antiviral activity against HIV1 harboring reverse transcriptase L100I mutant infected in human MT4 cells assessed as inhibition of viral replication after 5 days by MTT assay. The format is functional, cell-based. The following applies: Human immunodeficiency virus 1, MT4, 120 h.
The test system of data set [7] is Human immunodeficiency virus 1. Description: Antiviral activity against HIV1 harboring reverse transcriptase Y181C mutant infected in human MT4 cells assessed as inhibition of viral replication after 5 days by MTT assay. It is filed as functional, cell-based. The following applies: Human immunodeficiency virus 1, MT4, 120 h.
Data set [8] deals with Human immunodeficiency virus 1. Description: Antiviral activity against HIV1 harboring reverse transcriptase Y188L mutant infected in human MT4 cells assessed as inhibition of viral replication after 5 days by MTT assay. It is filed as functional, cell-based. The following applies: Human immunodeficiency virus 1, MT4, 120 h.
The subject of data set [9] is Human immunodeficiency virus 1. The data set is described as follows: Antiviral activity against HIV1 harboring reverse transcriptase E138K mutant infected in human MT4 cells assessed as inhibition of viral replication after 5 days by MTT assay. The conditions noted are these: Human immunodeficiency virus 1, MT4, 120 h. The format is functional, cell-based.
Data set [10] concerns Human immunodeficiency virus 1. The data set is described as follows: Antiviral activity against HIV1 harboring reverse transcriptase F227L/V106A double mutant infected in human MT4 cells assessed as inhibition of viral replication after 5 days by MTT assay. The format is functional, cell-based. The following applies: Human immunodeficiency virus 1, MT4, 120 h.
For data set [11], the system named is Human immunodeficiency virus 2. The data set is described as follows: Antiviral activity against HIV2 ROD infected in human MT4 cells assessed as inhibition of viral replication after 5 days by MTT assay. It is filed as functional, cell-based. The following applies: Human immunodeficiency virus 2, ISOLATE ROD, MT4, 120 h.
Data set [12] concerns the target Human immunodeficiency virus type 1 reverse transcriptase (Human immunodeficiency virus 1, UniProt Q72547). Description: Inhibition of recombinant wild type HIV-1 reverse transcriptase p66/p51 using poly(rA)/oligo(dT)16 as template/primer after 40 mins by ELISA. In general terms: ELISA stands for enzyme-linked immunosorbent assay.

The structures appear in SMILES notation.

As a reminder, the EC50 is the concentration needed to bring the measured effect to its halfway point. Broadly, the CC50 is the concentration giving 50% cytotoxicity. Regarding `Cc1cn([C@H]2C[C@H](N=[N+]=[N-])[C@@H](CO)O2)c(=O)[nH]c1=O` [ZIDOVUDINE], the EC50 in data set [1] is 0.0077 µM; in data set [2], 0.016 µM; in data set [3], 0.008 to 0.01 µM; in [6], 0.0052 µM; in data set [7], 0.0057 µM; in [8] it was 0.007 µM. In addition, the half-maximal effective concentration (EC50) was 0.009 µM in data set [9] and 0.0035 µM in data set [10]. The CC50 at 120 h in data set [4] is 7 to 7.5 µM. Further, the selectivity ratio in data set [5] is 971 to 974.

On to `CCOC(=O)C(=O)CC(=O)c1cccc(O)c1`, for which the EC50 in data set [1] is 356 to 357 µM; in data set [11], greater than 357 µM. Further, the CC50 at 120 h in data set [4] lay in the range of 356 to 364 µM. The selectivity ratio in [5] was less than 1.

Turning to `CCOC(=O)C(=O)CC(=O)c1ccc(O)cc1`, the EC50 in data set [1] was greater than 466 µM; in [11] it was greater than 312 µM. In addition, in data set [4], the half-maximal cytotoxic concentration (CC50) at 120 h came to 466 µM. In addition, the selectivity ratio in data set [5] was less than 1.

Consider `O=C1Nc2ccc(Cl)cc2[C@@](C#CC2CC2)(C(F)(F)F)O1` [EFAVIRENZ], for which the EC50 in data set [1] was 0.0037 to 0.0054 µM; in data set [2], 0.12 to 0.17 µM; in data set [3] it was 0.12 to 0.17 µM; in data set [6] it was 0.038 µM; in data set [7], 0.0054 µM; in [8] it was 0.17 µM. Also, the EC50 in data set [9] came out at 0.0047 µM; in data set [10], 0.13 µM. The CC50 at 120 h in [4] is 9 to 9.3 µM. Further, the selectivity ratio in [5] lay within 1720 to 2510.

Regarding `O=C(O)C(=O)CC(=O)c1ccc(O)cc1`, the EC50 in data set [1] and in data set [11] was greater than 600 µM in each case. The CC50 at 120 h in [4] was greater than 600 µM. For the same compound, in [5], the selectivity ratio amounted to 1.

One may read the IC50 as the concentration needed to halve the response being measured. Regarding `CCOC(=O)C(=O)CC(=O)c1ccc(Oc2ccnc(Nc3ccc(C#N)cc3)n2)cc1`, the concentration giving a half-maximal response (EC50) in [1] was 0.19 µM; in [2], 10 µM; in data set [3], 18 to 22 µM; in data set [6], greater than 22 µM; in data set [7], greater than 22 µM; in data set [8], greater than 22 µM. For the same compound, the EC50 in [9] was 7 µM; in data set [10] it was greater than 22 µM; in data set [11], greater than 16 µM. For the same compound, the CC50 at 120 h in data set [4] worked out at 18 µM. Further, the selectivity ratio in data set [5] was 95. Further, the IC50 in data set [12] stood at 5.86 µM.

For `N#Cc1ccc(Nc2nccc(Oc3cccc(C(=O)CC(=O)C(=O)O)c3)n2)cc1`, the EC50 is 0.14 µM in data set [1]; 38 µM in [2]; 9 to 10 µM in [3]; greater than 10 µM in data set [6]; 50 µM in data set [7]; greater than 10 µM in [8]. Further, the concentration giving a half-maximal response (EC50) is 43 µM in data set [9], 59 µM in [10] and greater than 8 µM in [11]. The CC50 at 120 h in [4] lay in the range of 10 to 62 µM. In addition, the selectivity ratio in data set [5] lay in the range of 71 to 442. Also, the IC50 in [12] came to 5.93 µM.

Consider `N#Cc1ccc(Nc2nccc(Oc3ccc(C(=O)CC(=O)C(=O)O)cc3)n2)cc1`, for which the EC50 is 0.23 µM in data set [1]; 42 to 48 µM in data set [2]; 42 to 48 µM in data set [3]; greater than 48 µM in data set [6]; greater than 48 µM in data set [7]; greater than 48 µM in data set [8]. Besides, the EC50 in data set [9] was 10 µM; in data set [10], greater than 48 µM; in data set [11], greater than 28 µM. For the same compound, in data set [4], the CC50 at 120 h was determined as 42 µM. In addition, in data set [5], the selectivity ratio lay within 182 to 183. Moreover, the IC50 in data set [12] is 25.2 µM.

As to `O=C(O)C(=O)CC(=O)c1cccc(O)c1`, the EC50 in data set [1] and in data set [11] was greater than 528 µM throughout. Moreover, the CC50 at 120 h in data set [4] stood at 528 µM. Further, in data set [5], the selectivity ratio is less than 1.

Consider `O=C(O)/C(O)=C/C(=O)c1cccc(Cc2ccccc2)c1`, for which, in data set [4], the CC50 at 120 h is greater than 10 µM. Moreover, in data set [5], the selectivity ratio was greater than 61. Further, in data set [12], the IC50 was greater than 100 µM.

For the compound `Cc1ccnc2c1NC(=O)c1cccnc1N2C1CC1` [NEVIRAPINE], the EC50 in [1] is 0.084 µM; in data set [2], greater than 15 µM; in data set [3] it was greater than 15 µM; in data set [6] it was 1.8 µM; in [7] it was greater than 15 µM; in data set [8], greater than 15 µM. The EC50 in data set [9] was 0.21 µM; in [10], greater than 15 µM. In addition, the CC50 at 120 h in data set [4] was greater than 15 µM. Further, the selectivity ratio in data set [5] is greater than 179.

With `Cc1cc(C#N)cc(C)c1Oc1nc(Nc2ccc(C#N)cc2)nc(N)c1Br` [ETRAVIRINE], the EC50 is 0.0033 µM in data set [1]; 0.0036 to 0.004 µM in data set [2]; 0.03 µM in [3]; 0.022 µM in [8]; 0.015 µM in data set [9]; 0.022 µM in [10]. For the same compound, in [4], the CC50 at 120 h is 4.6 to 5 µM.

`CCOC(=O)C(=O)CC(=O)c1cccc(Oc2ccnc(Nc3ccc(C#N)cc3)n2)c1`: the EC50 was 0.18 µM in data set [1]; 13 to 14 µM in data set [2]; 13 to 14 µM in [3]; greater than 13 µM in [6]; greater than 13 µM in data set [7]; greater than 13 µM in [8]. The EC50 is 10 µM in data set [9], greater than 13 µM in data set [10] and greater than 10 µM in [11]. Besides, the CC50 at 120 h in [4] came out at 14 µM. The selectivity ratio in data set [5] amounted to 78. In data set [12], the IC50 was 6.06 µM.
